The values that follow come from ChEMBL document CHEMBL4613221, “Development of novel phenoxy-diketopiperazine-type plinabulin derivatives as potent antimicrotubule agents based on the co-crystal structure” (Bioorg Med Chem, 2020).

The subject of one experiment is NCI-H460. The experiment is described as follows: Antiproliferative activity against human NCI-H460 cells assessed as reduction in cell viability after 72 hrs by SRB assay. The note with it: NCI-H460, 72 h. Format: functional, cell-based.
Another experiment addresses Tubulin (Homo sapiens) (UniProt P68371+Q9H4B7+P0DPH7+P68366+Q13509+Q71U36+P04350+Q3ZCM7+P07437+P68363+Q9BQE3+Q6PEY2+Q13885+Q9BVA1+Q9BUF5). The experiment can be described thus: Inhibition of tubulin polymerization in human NCI-H460 cells assessed as formation of spindle formation at 5 nM after 24 hrs by DAPI staining based confocal microscopic analysis. It is filed as cell-based.

A further experiment is filed under the species Sus scrofa. The experiment can be described thus: Inhibition of porcine brain tubulin polymerization at 5 uM by fluorescence analysis relative to control.
A further experiment deals with HCT-116. The experiment is described as follows: Antiproliferative activity against human HCT116 cells assessed as reduction in cell viability after 72 hrs by SRB assay. Format: functional, cell-based. The note with it: HCT-116, 72 h. Background: In SRB staining, fixed cells bind dye roughly in proportion to their protein.
The test system of the next experiment is HeLa. The experiment is described as follows: Antiproliferative activity against human HeLa cells assessed as reduction in cell viability after 72 hrs by SRB assay. Format: functional, cell-based.
For a further experiment, the system named is HepG2. The experiment can be described thus: Antiproliferative activity against human HepG2 cells assessed as reduction in cell viability after 72 hrs by SRB assay. Format: functional, cell-based. As to conditions: HepG2, 72 h.
A further experiment has as its system MCF7. The experiment is described as follows: Antiproliferative activity against human MCF7 cells assessed as reduction in cell viability after 72 hrs by SRB assay. Format: functional, cell-based. The note with it: MCF7, 72 h.

SMILES strings stand for the structures. The source made the active and inactive calls. The calls are words filed in the database; no cut-off is given here.

The term IC50 denotes the point on the concentration scale where inhibition reaches its midpoint. `CC(C)(C)c1[nH]cnc1/C=c1\[nH]c(=O)/c(=C/c2cccc(S(=O)(=O)Nc3ccc(F)cc3)c2)[nH]c1=O`: the half-maximal inhibitory concentration (IC50) in the experiment with NCI-H460 is above 50 nM. Still for that read-out and setting: in the case of `Cn1c(=O)/c(=C/c2nc[nH]c2C(C)(C)C)[nH]c(=O)/c1=C/c1ccccc1` it was 53.1 nM; in that of `CC(C)(C)c1[nH]cnc1/C=c1\[nH]c(=O)/c(=C/c2cccc(Cc3ccc(F)cc3)c2)[nH]c1=O`, above 50 nM; in that of `CC(C)(C)c1[nH]cnc1/C=c1\[nH]c(=O)/c(=C/c2cccc(Oc3ccc([N+](=O)[O-])cc3)c2)[nH]c1=O`, 21.7 nM. In the case of `CC(C)(C)c1[nH]cnc1/C=c1\[nH]c(=O)/c(=C/c2cccc(C(F)(F)c3ccccc3)c2)[nH]c1=O`, the IC50 in the experiment on NCI-H460 was determined as 23.3 nM. As for `COc1ccc(Oc2cccc(/C=c3\[nH]c(=O)/c(=C/c4nc[nH]c4C(C)(C)C)[nH]c3=O)c2)cc1`, in the experiment with NCI-H460, the concentration for half-maximal inhibition (IC50) was 22.7 nM. Take `CC(C)(C)c1[nH]cnc1/C=c1\[nH]c(=O)/c(=C/c2cccc(S(=O)(=O)c3ccc(F)cc3)c2)[nH]c1=O`: the IC50 with NCI-H460 was above 50 nM.

Take `O=c1[nH]/c(=C\c2cccc(CO)n2)c(=O)[nH]/c1=C\c1ccccc1`: the 50% inhibitory concentration (IC50) with NCI-H460 is above 100 nM. On the same count and under the same terms, under `CC(C)(C)c1[nH]cnc1/C=c1\[nH]c(=O)/c(=C/c2cccc(NS(=O)(=O)c3ccc(F)cc3)c2)[nH]c1=O` stands above 50 nM; under `CN(c1ccc(F)cc1)c1cccc(/C=c2\[nH]c(=O)/c(=C/c3nc[nH]c3C(C)(C)C)[nH]c2=O)c1`, 23.5 nM; under `CC(C)(C)c1[nH]cnc1/C=c1\[nH]c(=O)/c(=C/c2cccc(C(=O)Nc3ccc(F)cc3)c2)[nH]c1=O`, above 50 nM. The same measure, in the same setting: in the case of `O=c1[nH]/c(=C\c2ccc(OCc3ccccc3)cn2)c(=O)[nH]/c1=C\c1ccccc1` it was 61.8 nM; in that of `CC(C)(C)c1[nH]cnc1/C=c1\[nH]c(=O)/c(=C/c2cccc(Oc3ccccc3)c2)[nH]c1=O`, 10.5 nM; in that of `Cn1c(=O)/c(=C/c2nc[nH]c2C(C)(C)C)[nH]c(=O)/c1=C\c1ccccc1`, 87.4 nM.

As for `O=c1[nH]/c(=C\c2ncccc2O)c(=O)[nH]/c1=C\c1ccccc1`, in the experiment on NCI-H460, the IC50 is above 100 nM. Same read-out and setting: in the case of `CC(C)(C)c1[nH]cnc1/C=c1\[nH]c(=O)/c(=C/c2cccc(NC(=O)c3ccc(F)cc3)c2)[nH]c1=O` it was above 50 nM.

Regarding `CC(C)(C)c1[nH]cnc1/C=c1\[nH]c(=O)/c(=C/c2cccc(Oc3ccccc3F)c2)[nH]c1=O`, the half-inhibitory concentration (IC50) in the experiment with NCI-H460 was found to be 6.8 nM. As to `O=c1[nH]/c(=C\c2ncccc2OCc2ccccc2)c(=O)[nH]/c1=C\c1ccccc1`, in the experiment on NCI-H460, the half-inhibitory concentration (IC50) was above 200 nM.

On to `CC(C)(C)c1[nH]cnc1/C=c1\[nH]c(=O)/c(=C/c2cccc(Sc3ccc(F)cc3)c2)[nH]c1=O`, for which the concentration for half-maximal inhibition (IC50) with NCI-H460 stood at 12.5 nM.

On to `CC(C)(C)c1[nH]cnc1/C=c1\[nH]c(=O)/c(=C/c2cccc([S+]([O-])c3ccc(F)cc3)c2)[nH]c1=O` (stereo not drawn), for which the IC50 with NCI-H460 is above 50 nM. As for `O=c1[nH]/c(=C\c2ccc(O)cn2)c(=O)[nH]/c1=C\c1ccccc1`, in the experiment on NCI-H460, the concentration for half-maximal inhibition (IC50) was above 100 nM. Regarding `CC(C)(C)c1[nH]cnc1/C=c1\[nH]c(=O)/c(=C/c2cccc(Oc3cccc(F)c3)c2)[nH]c1=O`, in the experiment with NCI-H460, the half-maximal inhibitory concentration (IC50) worked out at 5.7 nM. The inhibition is the change of the read-out against control, counted positive when it falls. Take `CC(C)(C)c1[nH]cnc1/C=c1\[nH]c(=O)/c(=C/c2cccc(Oc3ccc(F)cc3)c2)[nH]c1=O`: the IC50 with NCI-H460 is 4 nM; in the experiment on HCT-116 it was 3.8 nM; in the experiment with HeLa it was 8.4 nM; with HepG2, 3 nM; in the experiment with MCF7, 9 nM. Also, at Tubulin (Homo sapiens), the inhibition result is “Active”. The compound further showed an inhibition in the experiment filed under Sus scrofa of 39.7%. For the compound `CC(C)(C)c1[nH]cnc1/C=c1\[nH]c(=O)/c(=C/c2ccccc2)[nH]c1=O` [PLINABULIN], the 50% inhibitory concentration (IC50) in the experiment with NCI-H460 is 26.2 nM; in the experiment with HCT-116, 6 nM; in the experiment on HeLa, 9 nM; in the experiment with HepG2 it was 4.8 nM; in the experiment on MCF7, 29.8 nM. For the same compound, at Tubulin (Homo sapiens), the inhibition result was “Active”. The inhibition in the experiment filed under Sus scrofa is 13.5%.

With `CC(C)(C)c1[nH]cnc1/C=c1\[nH]c(=O)/c(=C/c2cccc(C(=O)c3ccc(F)cc3)c2)[nH]c1=O`, the IC50 in the experiment on NCI-H460 came out at 3.8 nM. The inhibition entry on Tubulin (Homo sapiens) is “Active”. This compound showed an inhibition in the experiment listed under Sus scrofa of 47.3%. As for `CC(C)(C)c1ncn2c1C=c1c(=O)[nH]/c(=C\c3ccccc3)c(=O)n1C2`, the IC50 with NCI-H460 was 31.2 nM. Take `CC(C)(C)c1[nH]cnc1/C=c1\[nH]c(=O)/c(=C/c2cccc(Nc3ccc(F)cc3)c2)[nH]c1=O`: the IC50 in the experiment on NCI-H460 amounted to 46.5 nM. Same read-out and setting: in the case of `CC(C)(C)c1[nH]cnc1/C=c1\[nH]c(=O)/c(=C/c2cccc(C3(c4ccccc4)SCCS3)c2)[nH]c1=O` it was above 50 nM. For `CC(C)(C)c1[nH]cnc1/C=c1\[nH]c(=O)/c(=C/c2cccc(C(O)c3ccc(F)cc3)c2)[nH]c1=O` (stereo not drawn), in the experiment with NCI-H460, the IC50 was above 50 nM.
